Assay in all cases: inhibition of tumour cell growth, NCI panel, 48 h
The test system of experiment [1] is OVCAR-8 ovarian.
Experiment [2] has as its system HCT-15 colon.
For experiment [3], the system named is SK-MEL-5 melanoma.
Experiment [4] concerns KM12 colon.
For experiment [5], the system named is COLO 205 colon.
Experiment [6] relates to SF-295 CNS.
Experiment [7] concerns K-562 leukemia.
Experiment [8] has as its system HCT-116 colon.
The test system of experiment [9] is SK-MEL-28 melanoma.
Experiment [10] concerns HOP-92 NSCLC.

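Method: 48-hour compound exposure of cells in 96-well plates, five concentrations, linear interpolation of endpoints. GI50 = concentration required for 50% inhibition of growth. TGI marks complete inhibition of growth.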

`CCOc1ccc2c(ccc(/C=C\c3cc(C)c4cccnc4c3O)[n+]2C)c1`: the TGI in [1] was determined as 38.8 µM; in experiment [2], 23.7 µM; in experiment [3], 3.48 µM; in [4], 22.7 µM; in experiment [5], 5.82 µM; in experiment [6], 20.7 µM. In addition, the TGI worked out at 26.8 µM in [7], 25 µM in experiment [8], 14.6 µM in experiment [9] and 3.36 µM in experiment [10].

Take `COc1cc2c3c(n(CCN(C)C)c(=O)c2cc1OC)-c1cc2c(cc1C3=O)OCO2`: the GI50 in experiment [1] was 1.4 µM; in experiment [2], 2.32 µM; in experiment [3], 1.21 µM; in [4], 15.2 µM; in experiment [6], 0.511 µM; in [7], 2.53 µM. In addition, the values for the GI50 in experiment [9] and in experiment [10] were over 28.4 µM and 26.7 µM, respectively. For the same molecule, the TGI in experiment [1] is over 100 µM; in experiment [2], over 100 µM; in experiment [3], 22.1 µM; in experiment [4] it was over 60.2 µM; in experiment [5], over 100 µM; in experiment [6] it was over 41.7 µM. In addition, the TGI in [7] was 97.4 µM; in experiment [8], 19.3 µM; in experiment [9] it was over 100 µM; in experiment [10], over 100 µM.

On to `O=C(O)c1cc(=O)[nH]c(=S)[nH]1`, for which the TGI in [1], in [2], in experiment [3], in [4], in [5] and in [6] was over 100 µM each time. For the same molecule, the TGI in experiment [7], in experiment [8], in experiment [9] and in experiment [10] was over 100 µM each time.

For `CCCCN(CCCC)CCCCNc1c(C)cnc2cc(Cl)ccc12`, the TGI was over 100 µM in experiment [1]; over 100 µM in [2]; over 100 µM in experiment [4]; over 100 µM in [5]; 50.8 µM in experiment [6]; 43.3 µM in [7]. Moreover, the TGI was 42 µM in experiment [8], 33.2 µM in experiment [9] and 36.2 µM in experiment [10].

Turning to `Cc1ccc(S(=O)(=O)Oc2cc(S(=O)(=O)O)cc3cc(S(=O)(=O)O)cc(N)c23)cc1`, the TGI in [1], in [2], in experiment [3], in [4], in experiment [5] and in experiment [6] was over 100 µM in each case. For the same molecule, the TGI in experiment [7], in [8], in experiment [9] and in experiment [10] was over 100 µM throughout.

In the case of `c1ccc2c(c1)nc1n2CSC1`, the TGI in experiment [1], in experiment [2], in [3], in [5], in [6] and in experiment [7] was over 100 µM in each case. The TGI in experiment [9] and in experiment [10] was over 100 µM in each case.

Regarding `O=C(Nc1ccc(Cl)cc1)/C(Cc1cccc[n+]1[O-])=N\Nc1ccc([N+](=O)[O-])cc1[N+](=O)[O-]`, the TGI in experiment [1], in experiment [2], in [3], in experiment [4], in [5] and in experiment [6] was over 100 µM in each case. The TGI in experiment [7], in experiment [8], in [9] and in [10] was over 100 µM in each case.

For `[C-]#[O+].[Cl][Sn]([Cl])[Cl].[Cl][Sn]([Cl])[Cl].[Pt].c1ccncc1`, the TGI in [1], in experiment [2], in experiment [3], in experiment [4], in [5] and in experiment [6] was over 100 µM each time. Besides, the TGI in [7], in experiment [8], in experiment [9] and in experiment [10] was over 100 µM each time.

As to `CCN(CC)CCCC(Nc1c2ccc(Cl)cc2nc2ccc(OC)cc12)c1ccc(F)cc1` (configuration not stated), the GI50 in experiment [1] was 3.27 µM; in experiment [2] it was 1.56 µM; in experiment [3], 1.7 µM; in [4] it was 2 µM; in experiment [5], 2.05 µM; in experiment [6] it was 1.6 µM. Further, the values for the GI50 in [7], in experiment [8] and in experiment [9] were 2.18 µM, 1.84 µM and 1.71 µM, respectively. In addition, the TGI in [1] is 10.4 µM; in experiment [2], 3.27 µM; in experiment [3], 3.15 µM; in experiment [4], 3.67 µM; in experiment [5], 4.53 µM; in [6], 3.16 µM. Further, the TGI was 4.26 µM in experiment [7], 3.48 µM in experiment [8] and 3.2 µM in [9].

On to `CN1C2C=C(c3ccccc3)CC1CC2` (configuration not stated), for which the TGI in experiment [1], in experiment [2], in experiment [3], in experiment [4], in [5] and in [6] was over 100 µM each time. In addition, the TGI in experiment [7], in experiment [8], in experiment [9] and in experiment [10] was over 100 µM each time.

As for `O=C1CN2C(Cl)(Cl)C2(c2ccccc2)c2cc(Cl)ccc2N1CC(F)(F)F` (configuration not stated), the TGI in [1] is over 100 µM; in experiment [2] it was 81.6 µM; in experiment [3] it was 33.2 µM; in experiment [4] it was 42.2 µM; in experiment [5], 39.3 µM; in experiment [6], over 100 µM. Moreover, the TGI in [7] came out at 72.1 µM; in experiment [8] it was 49.3 µM; in experiment [9] it was 61 µM; in experiment [10], 41.1 µM.

Regarding `CC1=C[C@]2(CC(C)C3C(CC4(C)C5CCC6C(C)(C)C(=O)CC[C@@]67C[C@@]57CC[C@]34C)O2)OC1=O` (some centres not stated), the TGI was over 100 µM in experiment [1]; over 100 µM in [2]; 20.2 µM in experiment [3]; over 100 µM in experiment [4]; over 100 µM in experiment [5]; 89.5 µM in experiment [6]. Also, the TGI was over 100 µM in [7], over 100 µM in experiment [8], over 100 µM in experiment [9] and 45.7 µM in [10].

For `CCOP(=O)(OCC)C(Cc1ccc(OC)c(OC)c1)N=C(c1ccccc1)c1ccccc1` (configuration not stated), the TGI was over 100 µM in experiment [1]; over 100 µM in experiment [2]; 55.9 µM in experiment [3]; over 100 µM in experiment [4]; 38.1 µM in [5]; over 100 µM in experiment [6]. Moreover, the TGI is 22.4 µM in experiment [7], over 100 µM in experiment [8], over 100 µM in [9] and over 100 µM in experiment [10].

For `CC(/C=C/c1ccc([N+](=O)[O-])o1)=N/N1CC(CN2CCOCC2)OC1=O` (configuration not stated), the TGI in experiment [1] is 35.3 µM; in experiment [2] it was 40.3 µM; in [3], 28.6 µM; in [4], over 100 µM; in experiment [5] it was 29.8 µM; in experiment [6], over 100 µM. Also, the TGI in experiment [7] turned out to be 61.1 µM; in [8], 56.4 µM; in experiment [9], 38.2 µM; in experiment [10] it was 30.5 µM.

Consider `COc1ccc(/C=N/NC(=O)NCCCN(C)C)cc1`, for which the TGI in experiment [1], in experiment [2], in experiment [3], in [4], in [6] and in [7] was over 100 µM throughout. Further, the TGI in experiment [8] and in experiment [9] was over 100 µM in each case.

For the molecule `CCOc1ccc(/C=C/[N+](=O)[O-])cc1`, the GI50 in experiment [1] was 13.2 µM; in [2] it was 2.84 µM; in experiment [3], 5.78 µM; in experiment [4], 4.51 µM; in experiment [5], 4.71 µM; in experiment [6], 19.2 µM. Besides, the GI50 in experiment [7] was 4.52 µM; in experiment [8], 1.93 µM; in experiment [9], 16.6 µM; in [10], 12.9 µM. Further, the TGI in [1] was determined as 27.1 µM; in experiment [2] it was 11.3 µM; in experiment [3] it was 18.5 µM; in experiment [4], 15.4 µM; in experiment [5], 15.5 µM; in experiment [6] it was 41.8 µM. The TGI was over 100 µM in experiment [7], 3.55 µM in [8], 30.9 µM in experiment [9] and 28.1 µM in experiment [10].

Consider `Cc1nc2ccccc2c(=O)n1CC(=O)O`, for which the TGI in [1], in experiment [2], in experiment [3], in experiment [4], in [5] and in [6] was over 100 µM in each case. Moreover, the TGI in experiment [7], in experiment [8], in experiment [9] and in experiment [10] was over 100 µM throughout.

Regarding `Cn1cc(C[C@@H](N)C(=O)O)c2ccccc21`, the TGI in experiment [1], in experiment [2], in experiment [3], in experiment [4], in experiment [5] and in experiment [6] was over 100 µM in each case. Besides, the TGI in [7], in experiment [8], in experiment [9] and in experiment [10] was over 100 µM in each case. Also, the GI50 in experiment [3] and in experiment [10] was over 100 µM throughout.

Consider `Cc1cccc2c(N)c3cccc(C(=O)NCCN(C)C)c3nc12`, for which the TGI in experiment [1] was 2.01 µM; in [2], 4.29 µM; in experiment [3], 0.269 µM; in experiment [4], 0.856 µM; in experiment [5] it was 0.229 µM; in [6], 0.615 µM. Further, the TGI came to 0.543 µM in experiment [7], 2.38 µM in [8], 0.482 µM in experiment [9] and 2.94 µM in experiment [10].

`Nc1ncnc2c1ncn2C1CCC(CO)O1` (configuration not stated): the TGI in experiment [1] was over 79.4 µM; in [2], over 100 µM; in experiment [3], over 100 µM; in experiment [4] it was over 100 µM; in experiment [5], over 100 µM; in experiment [6] it was over 79.4 µM. The TGI in [7] was over 100 µM; in experiment [8] it was over 100 µM; in [9], over 68.2 µM; in experiment [10], over 86.4 µM.

With `CC(C)=CCc1c(C)cc2cc3c(c(O)c2c1O)C(O)=CC(=O)C3(CC=C(C)C)C/C=C(\C)CO` (configuration not stated), the TGI in experiment [1] was found to be 76.8 µM; in experiment [2] it was 68 µM; in [3] it was 50.9 µM; in [4], 81.7 µM; in [5] it was 80.1 µM; in experiment [6], 87.9 µM. In addition, the TGI in experiment [7] is 90.9 µM; in experiment [8] it was 72.3 µM; in experiment [9], 86.8 µM; in [10], 75.6 µM.

On to `CC[C@@H](C(=O)[C@@H](C)[C@@H](O)[C@H](C)CCc1ccc(C)c(O)c1C(=O)O)[C@H]1O[C@](CC)([C@H]2CC[C@](O)(CC)[C@H](C)O2)C[C@@H]1C`, for which the TGI amounted to 14.3 µM in experiment [1]; 16 µM in experiment [2]; 3.62 µM in [3]; 9.57 µM in experiment [4]; 4.76 µM in experiment [5]; 6.91 µM in [6]. Moreover, the TGI in experiment [7] was 3.05 µM; in [8] it was 9.65 µM; in experiment [9], 2.86 µM; in experiment [10], 8.96 µM.

With `O=C(Nc1nc2ccc([N+](=O)[O-])cc2[n+]([O-])n1)C(F)(F)F`, the TGI was over 100 µM in [1]; 98.8 µM in [2]; 25.3 µM in experiment [3]; over 100 µM in experiment [4]; over 100 µM in [5]; over 100 µM in experiment [6]. For the same molecule, the TGI in [7] was 79.3 µM; in experiment [8] it was 60.1 µM; in [9], over 100 µM; in experiment [10] it was over 100 µM.

In the case of `CO/N=C1/c2sccc2[C@H](NC(=O)C(F)(F)F)[C@@H]1O`, the TGI in experiment [1], in experiment [2], in [3], in experiment [5], in experiment [6] and in experiment [7] was over 100 µM throughout. In addition, the TGI in experiment [8], in experiment [9] and in experiment [10] was over 100 µM throughout.

With `C[C@]12C=CC(=O)C=C1CC[C@@H]1[C@@H]2C(=O)C[C@@]2(C)[C@H]1CC[C@]2(O)C(=O)CO`, the TGI in experiment [1], in experiment [2], in experiment [3], in experiment [4], in experiment [5] and in [6] was over 100 µM in each case. The TGI in [7], in [8], in [9] and in [10] was over 100 µM in each case.

Values taken from PubChem BioAssay (NCI).
